Experimental data published in US20240381872A1, “SUBSTITUTED 2,3-DIHYDRO[1,3]THIAZOLO[4,5-B]PYRIDINES, SALTS THEREOF AND THEIR USE AS HERBICIDALLY ACTIVE SUBSTANCES” (BAYER AKTIENGESELLSCHAFT, priority 2021, published 2024).

Experiments:
Type in all cases: in vivo
[1] = system: Amaranthus retroflexus (AMARE); assay: Herbicidal post-emergence action, section B (Table B11); conditions: visual rating about 3 weeks after treatment vs untreated controls
Description: (§1) Seeds of mono- and dicotyledonous weed plants were placed in plastic pots in sandy loam soil (doubly sown with in each case one species of mono- or dicotyledonous weed plants per pot), covered with soil and cultivated in a greenhouse under controlled growth conditions. 2 to 3 weeks after sowing, the test plants were treated at the one-leaf stage. The compounds of the invention, formulated in the form of wettable powders (WP) or as emulsion concentrates (EC), were applied onto the green parts of the plants as aqueous suspension or emulsion with addition of 0.5% additive at a water application rate of 600 liters per hectare (converted). After the test plants had been kept in the greenhouse under optimum growth conditions for about 3 weeks, the activity of the preparations was rated visually in comparison to untreated controls. For example, 100% activity=the plants have died, 0% activity=like control plants.

[2] = system: Echinochloa crus-galli (ECHCG); assay: Herbicidal pre-emergence action, section A (Table A3); conditions: application rate 1280 g/ha, visual grading after ca. 3 weeks vs untreated controls; for pest or weed control at 1280 g/ha: Echinochloa crus-galli, pre-emergence, 504 h, read-out: pre-emergence activity against ECHCG in %
Excerpt: (§2) Seeds of mono- and dicotyledonous weed plants were sown in plastic pots (double sowings with one species of mono- and one species of dicotyledonous weed plants per pot), in sandy loam, and covered with soil. The compounds according to the invention, formulated in the form of wettable powders (WP) or as emulsifiable concentrates (EC), were applied to the surface of the covering soil as aqueous suspension or emulsion, with the addition of 0.5% of an additive, at an application rate of 600 l of water per hectare (converted). Following treatment, the pots were placed in a greenhouse and kept under optimum growth conditions for the test plants. The visual grading of the damage to the test plants was carried out after ca. 3 weeks in comparison to untreated controls (herbicidal effect in percent (%): 100% effect=plants have died off, 0% effect=as control plants).

[3] = system: Stellaria media (STEME); assay: Herbicidal pre-emergence action, section A (Table A9)
Excerpt: as §2

[4] = system: Kochia scoparia (KCHSC); assay: Herbicidal post-emergence action, section B (Table B4); conditions: application rate 1280 g/ha; visual rating about 3 weeks after treatment vs untreated controls
Description: as §1

[5] = system: Setaria viridis (SETVI); assay: Herbicidal pre-emergence action, section A (Table A8); conditions: for pest or weed control at 1280 g/ha: Setaria viridis, 504 h, read-out: pre-emergence activity against SETVI in %
Excerpt: as §2

[6] = system: Amaranthus retroflexus (AMARE); assay: Herbicidal pre-emergence action, section A (Table A11)
Excerpt: as §2

[7] = system: Veronica persica (VERPE); assay: Herbicidal post-emergence action, section B (Table B10); conditions: application rate 1280 g/ha; visual rating about 3 weeks after treatment vs untreated controls
Description: as §1

[8] = system: Veronica persica (VERPE); assay: Herbicidal pre-emergence action, section A (Table A10); conditions: application rate 1280 g/ha
Excerpt: as §2

[9] = system: Kochia scoparia (KCHSC); assay: Herbicidal pre-emergence action, section A (Table A4); conditions: application rate 1280 g/ha, visual grading after ca. 3 weeks vs untreated controls
Excerpt: as §2

[10] = system: Poa annua (POAAN); assay: Herbicidal pre-emergence action, section A (Table A7); conditions: visual grading after ca. 3 weeks vs untreated controls
Excerpt: as §2

[11] = system: Digitaria sanguinalis (DIGSA); assay: Herbicidal pre-emergence action, section A (Table A12); conditions: application rate 1280 g/ha; for pest or weed control at 1280 g/ha: Digitaria sanguinalis, 504 h, read-out: pre-emergence activity against DIGSA in %
Excerpt: as §2

[12] = system: Poa annua (POAAN); assay: Herbicidal post-emergence action, section B (Table B7); conditions: application rate 1280 g/ha, visual rating about 3 weeks after treatment vs untreated controls
Description: as §1

[13] = system: Lolium rigidum (LOLRI); assay: Herbicidal pre-emergence action, section A (Table A5); conditions: application rate 1280 g/ha, visual grading after ca. 3 weeks vs untreated controls
Excerpt: as §2

[14] = system: Matricaria inodora (MATIN); assay: Herbicidal pre-emergence action, section A (Table A6); conditions: Tripleurospermum inodorum, pre-emergence, 504 h; application rate 1280 g/ha; visual grading after ca. 3 weeks vs untreated controls; read-out: pre-emergence activity against MATIN in %
Excerpt: as §2

Cc1cccc(-c2nc3c(cc2Br)SCN3B(N)N)c1C [Example I-105]
post-emergence activity against AMARE in % ([1]; application rate 1280 g/ha): 90%

Cc1cc2c(nc1-c1cccc(Cl)c1F)N(S(C)(=O)=O)CS2 [Example I-111]
pre-emergence activity against ECHCG in % [2]: 100%
pre-emergence activity against STEME in % ([3]; application rate 1280 g/ha): 90%
post-emergence activity against KCHSC in % [4]: 90%

O=C(N1CSc2cc(Br)c(-c3cccc(Cl)c3F)nc21)C12CCCC1C(Cl)=NO2 (stereo not shown) [Example I-126]
pre-emergence activity against SETVI in % ([5]; application rate 1280 g/ha): 90%
pre-emergence activity against STEME in % ([3]; application rate 1280 g/ha): 90%
pre-emergence activity against AMARE in % ([6]; application rate 320 g/ha): 90%
post-emergence activity against VERPE in % [7]: 90%
post-emergence activity against AMARE in % ([1]; application rate 320 g/ha): 90%

N#CCS(=O)(=O)N1CSc2cc(Br)c(-c3cccc(Cl)c3F)nc21 [Example I-131]
pre-emergence activity against STEME in % ([3]; application rate 1280 g/ha): 90%
pre-emergence activity against AMARE in % ([6]; application rate 1280 g/ha): 90%
post-emergence activity against VERPE in % [7]: 90%
post-emergence activity against AMARE in % ([1]; application rate 1280 g/ha): 90%

CCS(=O)(=O)N1CSc2cc(Br)c(-c3cccc(Cl)c3F)nc21 [Example I-132]
pre-emergence activity against VERPE in % [8]: 90%
post-emergence activity against VERPE in % [7]: 90%
post-emergence activity against AMARE in % ([1]; application rate 1280 g/ha): 90%

CCS(=O)(=O)N1C[S+]([O-])c2cc(Br)c(-c3ccccc3Cl)nc21 (stereo not shown) [Example I-134]
pest or weed control at 1280 g/ha [2]: 100%
pest or weed control at 1280 g/ha ([9]; Bassia scoparia, pre-emergence, 504 h, read-out: pre-emergence activity against KCHSC in %): 90%
pest or weed control at 1280 g/ha ([10]; Poa annua, pre-emergence, 504 h, application rate 1280 g/ha, read-out: pre-emergence activity against POAAN in %): 100%
pest or weed control at 1280 g/ha ([5]; application rate 1280 g/ha): 100%
pest or weed control at 1280 g/ha ([3]; Stellaria media, 504 h, application rate 1280 g/ha, read-out: pre-emergence activity against STEME in %): 90%
pest or weed control at 1280 g/ha ([6]; Amaranthus retroflexus, 504 h, application rate 1280 g/ha, read-out: pre-emergence activity against AMARE in %): 90%
pest or weed control at 1280 g/ha [11]: 100%
pest or weed control at 1280 g/ha ([12]; Poa annua, post-emergence, 504 h, read-out: post-emergence activity against POAAN in %): 90%

Cc1cccc(-c2nc3c(cc2Br)SCN3C(=O)C2(C)CC(Cl)=NO2)c1C (stereo not shown) [Example I-140]
pre-emergence activity against POAAN in % ([10]; application rate 1280 g/ha): 100%
pre-emergence activity against STEME in % ([3]; application rate 1280 g/ha): 90%
pre-emergence activity against AMARE in % ([6]; application rate 1280 g/ha): 90%

COCCOCCOCC(=O)N1CSc2cc(C)c(-c3cccc(F)c3F)nc21 [Example I-149]
pre-emergence activity against ECHCG in % [2]: 100%
pre-emergence activity against KCHSC in % [9]: 90%
pre-emergence activity against LOLRI in % [13]: 90%
pre-emergence activity against POAAN in % ([10]; application rate 1280 g/ha): 100%
pre-emergence activity against SETVI in % ([5]; application rate 320 g/ha): 100%
pre-emergence activity against STEME in % ([3]; application rate 1280 g/ha): 90%
pre-emergence activity against VERPE in % [8]: 90%
pre-emergence activity against AMARE in % ([6]; application rate 320 g/ha): 90%
pre-emergence activity against DIGSA in % [11]: 100%
post-emergence activity against POAAN in % [12]: 90%

CCC(=O)N1C[S+]([O-])c2cc(C)c(-c3cc(F)ccc3F)nc21 (stereo not shown) [Example I-167]
pest or weed control at 1280 g/ha [2]: 100%
pest or weed control at 1280 g/ha ([13]; Lolium rigidum, pre-emergence, 504 h, read-out: pre-emergence activity against LOLRI in %): 100%
pest or weed control at 1280 g/ha [14]: 90%
pest or weed control at 320 g/ha ([10]; Poa annua, pre-emergence, 504 h, application rate 320 g/ha, read-out: pre-emergence activity against POAAN in %): 100%
pest or weed control at 1280 g/ha ([5]; application rate 1280 g/ha): 90%
pest or weed control at 320 g/ha ([3]; Stellaria media, 504 h, application rate 320 g/ha, read-out: pre-emergence activity against STEME in %): 90%
pest or weed control at 1280 g/ha ([8]; Veronica persica, 504 h, read-out: pre-emergence activity against VERPE in %): 90%
pest or weed control at 320 g/ha ([6]; Amaranthus retroflexus, 504 h, application rate 320 g/ha, read-out: pre-emergence activity against AMARE in %): 90%
pest or weed control at 1280 g/ha [11]: 100%
